Data from US20240002450A1 (priority 2020, published 2024).
Bridge positions count the residues as written; N and C are the ends. Square brackets hold non-standard residues; d marks the D form. Peptide text beside a SMILES is read from it. S5 = C=CCCC[C@](C)(N)C(=O)O; βAla = NCCC(=O)O

Legend:
[1] = tested on: Huh-7 hepatocellular carcinoma cells
Zaire Ebola virus = format: cell-based
Makona variant of EBOV = format: cell-based, Ebola virus

Compound | cell permeability (ability to enter cells) [1] | infected cells after 24 hours of infection (Zaire Ebola virus) | inhibition of virus infection at six hours post-infection (Zaire Ebola virus) | antiviral activity (prevention of EBOV infection) (Makona variant of EBOV)
CC[C@H](C)[C@H](NC(=O)[C@H](CCC(N)=O)NC(=O)[C@H](CC(N)=O)NC(=O)[C@@H](NC(=O)[C@]1(C)CCCC=CCCC[C@](C)(NC(=O)[C@H](CCCCN)NC(=O)[C@@H](NC(=O)[C@H](Cc2c[nH]c3ccccc23)NC(=O)[C@H](CC(N)=O)NC(=O)[C@H](Cc2c[nH]cn2)NC(=O)CCNC(C)=O)[C@@H](C)O)C(=O)N[C@@H]([C@@H](C)CC)C(=O)N[C@@H]([C@@H](C)O)C(=O)N[C@@H](CC(N)=O)C(=O)N1)[C@@H](C)CC)C(=O)N[C@H](C(=O)N[C@@H](Cc1c[nH]cn1)C(=O)N[C@@H](CC(=O)O)C(=O)N[C@@H](Cc1ccccc1)C(=O)N[C@H](C(=O)N[C@@H](CC(N)=O)C(=O)N[C@@H](CCCCN)C(N)=O)C(C)C)[C@@H](C)CC [SEboV-9, HNWTKX1ITNX2INQIIHDFVNK, wherein each of X1 and X2 is (S)-2-(4′-pentenyl)Alanine] (Ac-[βAla]HNWTK[S5]ITN[S5]INQIIHDFVNK-NH2; staple 7-11) | readily penetrated cells |  |  | 
CC[C@H](C)[C@H](NC(=O)[C@H](CCCCN)NC(=O)[C@H](CC(=O)O)NC(=O)[C@@H](NC(=O)[C@@H](NC(=O)[C@H](CC(N)=O)NC(=O)[C@H](CCCCN)NC(=O)[C@@H](NC(=O)[C@H](Cc1c[nH]c2ccccc12)NC(=O)[C@H](CC(=O)O)NC(=O)[C@H](Cc1c[nH]cn1)NC(=O)CCNC(C)=O)[C@@H](C)O)[C@@H](C)CC)[C@@H](C)O)C(=O)N[C@@H](CC(=O)O)C(=O)N[C@@H](CCC(N)=O)C(=O)N[C@H](C(=O)N[C@H](C(=O)N[C@@H](Cc1c[nH]cn1)C(=O)N[C@@H](CC(=O)O)C(=O)N[C@@H](Cc1ccccc1)C(=O)N[C@H](C(=O)N[C@@H](CC(=O)O)C(=O)N[C@@H](CCCCN)C(N)=O)C(C)C)[C@@H](C)CC)[C@@H](C)CC [WT EboV, reference compound] | not cell permeable |  |  | 
HDWTKNITDKIX1QIIX2DFVDK, wherein each of X1 and X2 is (S)-2-(4′-pentenyl)Alanine [Ac9] |  | almost no infected cells | inhibited the virus | 
HDWTX1NIX2DKIX3QIIHDFVDK, wherein X1 is (S)-2-(4′-pentenyl)Alanine, X2 is 2,2-bis(4-pentenyl)glycine, and X3 is (S)-2-(4′-pentenyl)Alanine [Ac5] |  | almost no infected cells | inhibited the virus | 
HX1WTKNITX2KINQIIHDFVNK, wherein X1 is (R)-2-(7′-octenyl) alanine and X2 is (S)-2-(4′-pentenyl)Alanine [SEboV-1] |  |  |  | displayed antiviral activity
HX1WTKX2ITDKIDQIIHDFVDK, wherein each of X1 and X2 is (S)-2-(4′-pentenyl)Alanine [Ac3] |  | almost no infected cells | inhibited the virus | 
HX1WTKX2ITDKINQIIHDFVNK, wherein each of X1 and X2 is (S)-2-(4′-pentenyl)Alanine [SEboV-2] |  |  |  | displayed antiviral activity
X1DWTKNIX2DKIDQIIHDFVDK, wherein X1 is (R)-2-(7′-octenyl) alanine and X2 is (S)-2-(4′-pentenyl)Alanine [Ac4] |  | almost no infected cells | inhibited the virus | 
